Laboratory results from ChEMBL document CHEMBL6103576, “Design, synthesis, and antiviral activity of fragmented-lapatinib aminoquinazoline analogs towards SARS-CoV-2 inhibition” (Eur J Med Chem, 2025).
pEC50, pIC50: −log10 of the molar value.

Tests used:
SARS-CoV-2 [1] = assay: Antiviral activity against SARS-CoV-2 infected in Vero E6 cells assessed as inhibition of viral replication at 10 uM measured for 72 hrs relative to control; assay type: functional; settings: Severe acute respiratory syndrome coronavirus 2, Vero C1008
[2] = Cytotoxicity against African green monkey Vero E6 cells assessed as cell viability incubated for 48 hrs by CellTiter96 assay; assay type: toxicity, cell-based, Vero C1008; settings: chlorocebus sabaeus
SARS-CoV-2 [3] = assay: Antiviral activity against SARS-CoV-2 infected in Vero E6 cells assessed as inhibition of viral replication measured for 72 hrs; assay type: functional, organism-based; settings: Severe acute respiratory syndrome coronavirus 2, Vero C1008, 72 h
[4] = molecular target: Replicase polyprotein 1ab (Severe acute respiratory syndrome coronavirus 2) (UniProt P0DTD1); assay: Inhibition of SARS-CoV-2 MPro using E(EDAS)TSAVLQSGFRK(DABCYL) as substrate at 100 uM by fluorescence based analysis relative to control
[5] = Cytotoxicity against African green monkey Vero E6 cells assessed as cell viability at 50 uM incubated for 48 hrs by CellTiter96 assay relative to control; assay type: toxicity, cell-based, Vero C1008; settings: chlorocebus sabaeus, read-out: Activity
SARS-CoV-2 [6] = assay: Antiviral activity against SARS-CoV-2 infected in Vero E6 cells assessed as inhibition of viral replication at 50 uM measured for 72 hrs relative to control; assay type: functional; settings: Severe acute respiratory syndrome coronavirus 2, Vero C1008
[7] = molecular target: Replicase polyprotein 1ab (Severe acute respiratory syndrome coronavirus 2, UniProt P0DTD1); assay: Inhibition of SARS-CoV-2 MPro using E(EDAS)TSAVLQSGFRK(DABCYL) as substrate by fluorescence based analysis
Vero C1008 = assay: Cytotoxicity against African green monkey Vero E6 cells assessed as cell viability at 10 uM incubated for 48 hrs by CellTiter96 assay; assay type: toxicity, cell-based; settings: chlorocebus sabaeus, vero c1008, 48 h

Structure (SMILES) | inhibition at 10 µM (SARS-CoV-2 [1]) [%] | CC50 at 48 h [2] [µM] | pEC50 (SARS-CoV-2 [3]) | inhibition [4] [%] | viability at 48 h, 50 µM [5] [%] | inhibition at 50 µM (SARS-CoV-2 [6]) [%] | pIC50 [7] | Activity (Vero C1008)
O=C(Nc1ccccc1F)c1cccc(COc2ccc(Nc3ncnc4ccccc34)cc2Cl)c1 | 82.2 | > 100 | 5.96 | 68.6 | 13.6 | 96.9 | – | –
O=C(Nc1ccccc1)c1ccc(COc2ccc(Nc3ncnc4ccccc34)cc2Cl)cc1 | – | – | – | 66.3 | 8.05 | 0 | – | –
Fc1cccc(COc2ccc(Nc3ncnc4ccccc34)cc2Cl)c1 | – | – | – | 82.6 | 44.8 | 43.7 | 5.50 | –
COc1cccc(NC(=O)c2ccc(COc3ccc(Nc4ncnc5ccccc45)cc3Cl)cc2)c1 | – | – | – | 49.3 | 22.6 | 82.2 | – | –
Clc1cc(Nc2ncnc3ccccc23)ccc1OCc1ccccc1 | – | – | – | 74.6 | 49.3 | 25.1 | 5.40 | –
O=C(Nc1ccccc1Cl)c1ccc(COc2ccc(Nc3ncnc4ccccc34)cc2Cl)cc1 | – | – | – | 30.8 | 3.64 | 57.7 | – | –
O=C(Nc1ccc(Cl)cc1)c1cccc(COc2ccc(Nc3ncnc4ccccc34)cc2Cl)c1 | – | – | – | 69.5 | 9.39 | 24.9 | – | –
O=C(Nc1cccc(I)c1)c1cccc(COc2ccc(Nc3ncnc4ccccc34)cc2Cl)c1 | – | – | – | 55.7 | 21 | 99 | – | –
O=C(Nc1cccc(C(F)(F)F)c1)c1ccc(COc2ccc(Nc3ncnc4ccccc34)cc2Cl)cc1 | – | – | – | 55.7 | 17.3 | 90 | – | –
O=C(Nc1ccccc1F)c1ccc(COc2ccc(Nc3ncnc4ccccc34)cc2Cl)cc1 | – | – | – | 66.4 | 0 | 86.7 | – | –
O=C(Nc1ccccc1Cl)c1cccc(COc2ccc(Nc3ncnc4ccccc34)cc2Cl)c1 | – | – | – | 53 | 38 | 95.9 | – | –
CS(=O)(=O)CCNCc1ccc(-c2ccc3ncnc(Nc4ccc(OCc5cccc(F)c5)c(Cl)c4)c3c2)o1 [LAPATINIB] | 58.8 | – | – | 97.1 | 71.1 | 92.7 | – | –
O=C(Nc1ccccc1)c1cccc(COc2ccc(Nc3ncnc4ccccc34)cc2Cl)c1 | – | – | – | 98 | 1 | 68.4 | 5.43 | –
O=C(Nc1cccc(I)c1)c1ccc(COc2ccc(Nc3ncnc4ccccc34)cc2Cl)cc1 | – | – | – | 87.7 | 0 | 94.5 | 5.04 | –
CCC(CC)COC(=O)[C@H](C)N[P@](=O)(OC[C@H]1OC(C#N)(c2ccc3c(N)ncnn23)[C@H](O)[C@@H]1O)Oc1ccccc1 (some centres undefined) | 99.9 | – | – | – | – | – | – | Non-toxic
O=C(Nc1ccc(Cl)cc1)c1ccc(COc2ccc(Nc3ncnc4ccccc34)cc2Cl)cc1 | – | – | – | 73.2 | 0 | 82.2 | 5.32 | –
O=C(Nc1cccc(C(F)(F)F)c1)c1cccc(COc2ccc(Nc3ncnc4ccccc34)cc2Cl)c1 | – | – | – | – | 26.6 | 99 | – | –
Clc1cc(Nc2ncnc3ccccc23)ccc1OCc1cccc(Br)c1 | – | – | – | 82 | 28.1 | 68.4 | 5.36 | –
COc1cccc(NC(=O)c2cccc(COc3ccc(Nc4ncnc5ccccc45)cc3Cl)c2)c1 | – | – | – | – | 8.66 | 92.7 | – | –
